Experimental data from ChEMBL document CHEMBL2321764, “Synthesis and antibacterial activities of new piperidine substituted (5R)-[1,2,3]triazolylmethyl and (5R)-[(4-F-[1,2,3]triazolyl)methyl] oxazolidinones” (Bioorg Med Chem Lett, 2013).
≈ marks a conversion by molar mass, not a printed value.

How the values were obtained:
Staphylococcus aureus = experiment: Antibacterial activity against methicillin-resistant Staphylococcus aureus C463 by agar dilution method; format: functional
Haemophilus influenzae = experiment: Antibacterial activity against betalactamase positive Haemophilus influenzae by agar dilution method; format: functional
Staphylococcus = experiment: Antibacterial activity against methicillin-resistant coagulase negative Staphylococcus by agar dilution method; format: functional
Enterococcus faecalis = experiment: Antibacterial activity against vancomycin-resistant Enterococcus faecalis C474 by agar dilution method; format: functional
Streptococcus pyogenes = experiment: Antibacterial activity against Streptococcus pyogenes 308A by agar dilution method; format: functional
Streptococcus agalactiae = experiment: Antibacterial activity against Streptococcus agalactiae ATCC 2901 by agar dilution method; format: functional
Enterococcus faecium = experiment: Antibacterial activity against vancomycin-resistant Enterococcus faecium C803 by agar dilution method; format: functional
Streptococcus pneumoniae = experiment: Antibacterial activity against penicillin-resistant Streptococcus pneumoniae C402 by agar dilution method; format: functional
CYP1A2 = biological target: T1, CYP1A2 (Homo sapiens, UniProt P05177); experiment: Inhibition of CYP1A2 (unknown origin) assessed as residual activity at 10 uM; format: ADME; settings: read-out: INH
T1 sequence (P05177 whole entry): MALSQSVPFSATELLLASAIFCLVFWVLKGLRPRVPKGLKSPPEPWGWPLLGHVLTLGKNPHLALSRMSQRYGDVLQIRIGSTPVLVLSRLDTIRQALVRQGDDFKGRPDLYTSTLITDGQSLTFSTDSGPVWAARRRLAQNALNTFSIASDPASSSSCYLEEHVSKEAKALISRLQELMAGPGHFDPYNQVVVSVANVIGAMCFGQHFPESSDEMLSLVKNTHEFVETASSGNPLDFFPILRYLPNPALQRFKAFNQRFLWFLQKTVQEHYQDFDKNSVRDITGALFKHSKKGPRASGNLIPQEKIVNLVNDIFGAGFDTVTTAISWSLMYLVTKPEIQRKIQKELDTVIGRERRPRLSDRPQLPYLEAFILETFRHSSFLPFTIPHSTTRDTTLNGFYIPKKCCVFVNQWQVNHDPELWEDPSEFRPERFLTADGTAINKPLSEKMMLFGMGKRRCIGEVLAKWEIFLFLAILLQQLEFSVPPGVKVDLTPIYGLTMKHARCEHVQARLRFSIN

CYP3A4 = CYP3A4 (Homo sapiens, UniProt P08684); experiment: Inhibition of CYP3A4 (unknown origin) assessed as residual activity at 10 uM; format: ADME; settings: read-out: INH
CYP3A4, sequence (P08684 whole entry): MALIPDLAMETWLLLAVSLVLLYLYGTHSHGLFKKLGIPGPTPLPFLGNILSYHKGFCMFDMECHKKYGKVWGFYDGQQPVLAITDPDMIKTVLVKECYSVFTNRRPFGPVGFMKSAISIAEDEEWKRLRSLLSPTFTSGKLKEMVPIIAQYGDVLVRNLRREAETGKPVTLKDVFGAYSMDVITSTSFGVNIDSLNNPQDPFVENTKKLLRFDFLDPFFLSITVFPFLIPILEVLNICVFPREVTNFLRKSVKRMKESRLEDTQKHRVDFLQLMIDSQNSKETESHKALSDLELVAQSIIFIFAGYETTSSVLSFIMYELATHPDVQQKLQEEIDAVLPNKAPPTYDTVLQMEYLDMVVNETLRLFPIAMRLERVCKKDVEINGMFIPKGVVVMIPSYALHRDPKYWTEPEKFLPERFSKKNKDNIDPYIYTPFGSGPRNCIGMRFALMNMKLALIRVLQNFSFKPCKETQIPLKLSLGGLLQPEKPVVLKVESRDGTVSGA

MAO-B = biological target: T2, MAO-B (Homo sapiens, UniProt P27338); experiment: Inhibition of human MAO-B assessed as residual activity at 10 uM; settings: read-out: INH
T2 sequence (P27338 whole entry): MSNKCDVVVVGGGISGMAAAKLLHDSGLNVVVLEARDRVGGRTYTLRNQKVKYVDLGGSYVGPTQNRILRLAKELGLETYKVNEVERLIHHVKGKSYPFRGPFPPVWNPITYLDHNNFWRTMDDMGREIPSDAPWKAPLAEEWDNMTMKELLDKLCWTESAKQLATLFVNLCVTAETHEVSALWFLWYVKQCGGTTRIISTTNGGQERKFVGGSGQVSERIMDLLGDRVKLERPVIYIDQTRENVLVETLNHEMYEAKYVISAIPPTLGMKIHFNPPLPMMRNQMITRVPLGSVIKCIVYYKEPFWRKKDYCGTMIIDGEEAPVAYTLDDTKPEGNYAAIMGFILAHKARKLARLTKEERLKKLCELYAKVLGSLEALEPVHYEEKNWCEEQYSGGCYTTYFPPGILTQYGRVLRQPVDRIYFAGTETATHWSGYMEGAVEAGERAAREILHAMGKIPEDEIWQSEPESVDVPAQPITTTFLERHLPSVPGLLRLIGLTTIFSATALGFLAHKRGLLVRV

[1] = biological target: Voltage-gated inwardly rectifying potassium channel KCNH2 (Homo sapiens, UniProt Q12809); experiment: Inhibition of human hERG by automated patch clamp assay
Voltage-gated inwardly rectifying potassium channel KCNH2, sequence (Q12809 whole entry): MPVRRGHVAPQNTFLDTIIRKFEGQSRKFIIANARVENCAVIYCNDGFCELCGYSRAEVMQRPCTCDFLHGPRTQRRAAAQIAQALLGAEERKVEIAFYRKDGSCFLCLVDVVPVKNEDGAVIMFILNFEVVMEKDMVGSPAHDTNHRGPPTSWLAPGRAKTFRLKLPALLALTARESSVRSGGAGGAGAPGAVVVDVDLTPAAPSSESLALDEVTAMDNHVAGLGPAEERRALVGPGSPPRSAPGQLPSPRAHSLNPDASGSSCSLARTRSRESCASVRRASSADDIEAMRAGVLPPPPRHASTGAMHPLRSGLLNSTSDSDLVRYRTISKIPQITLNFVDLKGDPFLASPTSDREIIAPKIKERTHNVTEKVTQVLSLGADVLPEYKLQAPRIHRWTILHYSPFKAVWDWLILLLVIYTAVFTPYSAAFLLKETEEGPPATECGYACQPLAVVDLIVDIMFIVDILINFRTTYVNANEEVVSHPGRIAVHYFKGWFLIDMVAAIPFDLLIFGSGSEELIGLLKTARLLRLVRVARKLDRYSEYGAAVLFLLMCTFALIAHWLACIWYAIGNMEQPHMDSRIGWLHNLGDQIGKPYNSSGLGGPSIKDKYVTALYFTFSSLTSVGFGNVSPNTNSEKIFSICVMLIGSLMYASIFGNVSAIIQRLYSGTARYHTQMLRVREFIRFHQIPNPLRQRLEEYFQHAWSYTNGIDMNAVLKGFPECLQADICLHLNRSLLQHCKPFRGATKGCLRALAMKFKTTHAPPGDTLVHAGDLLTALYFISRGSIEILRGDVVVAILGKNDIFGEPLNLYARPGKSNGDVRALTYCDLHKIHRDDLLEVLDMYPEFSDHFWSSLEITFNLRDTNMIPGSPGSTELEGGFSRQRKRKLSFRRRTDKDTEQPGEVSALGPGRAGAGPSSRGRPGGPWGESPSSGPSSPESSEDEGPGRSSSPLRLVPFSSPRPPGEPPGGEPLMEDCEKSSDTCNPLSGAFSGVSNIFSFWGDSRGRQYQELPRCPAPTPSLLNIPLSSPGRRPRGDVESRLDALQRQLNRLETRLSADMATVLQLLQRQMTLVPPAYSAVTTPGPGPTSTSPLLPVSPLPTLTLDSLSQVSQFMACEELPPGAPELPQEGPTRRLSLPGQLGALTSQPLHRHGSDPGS

MAO-A = biological target: T3, MAO-A (Homo sapiens, UniProt P21397); experiment: Inhibition of human MAO-A assessed as residual activity at 10 uM; settings: read-out: INH
T3 sequence (P21397 whole entry): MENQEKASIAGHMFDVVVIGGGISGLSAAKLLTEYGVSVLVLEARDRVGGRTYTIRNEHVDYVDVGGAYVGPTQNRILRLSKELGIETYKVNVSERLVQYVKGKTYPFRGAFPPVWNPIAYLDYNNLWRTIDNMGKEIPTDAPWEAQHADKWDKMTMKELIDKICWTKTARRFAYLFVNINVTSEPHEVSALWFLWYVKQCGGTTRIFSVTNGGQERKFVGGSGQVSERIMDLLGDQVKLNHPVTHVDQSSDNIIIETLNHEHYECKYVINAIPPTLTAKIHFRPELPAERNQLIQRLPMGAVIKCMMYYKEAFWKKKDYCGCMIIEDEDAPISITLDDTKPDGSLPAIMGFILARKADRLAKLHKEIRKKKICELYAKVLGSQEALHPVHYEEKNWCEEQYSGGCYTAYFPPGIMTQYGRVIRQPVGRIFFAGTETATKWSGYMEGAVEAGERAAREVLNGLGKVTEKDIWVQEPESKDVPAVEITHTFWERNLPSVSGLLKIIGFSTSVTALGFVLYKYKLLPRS

CYP2C9 = CYP2C9 (Homo sapiens, UniProt P11712); experiment: Inhibition of CYP2C9 (unknown origin) assessed as residual activity at 10 uM; format: ADME; settings: read-out: INH
CYP2C9, sequence (P11712 whole entry): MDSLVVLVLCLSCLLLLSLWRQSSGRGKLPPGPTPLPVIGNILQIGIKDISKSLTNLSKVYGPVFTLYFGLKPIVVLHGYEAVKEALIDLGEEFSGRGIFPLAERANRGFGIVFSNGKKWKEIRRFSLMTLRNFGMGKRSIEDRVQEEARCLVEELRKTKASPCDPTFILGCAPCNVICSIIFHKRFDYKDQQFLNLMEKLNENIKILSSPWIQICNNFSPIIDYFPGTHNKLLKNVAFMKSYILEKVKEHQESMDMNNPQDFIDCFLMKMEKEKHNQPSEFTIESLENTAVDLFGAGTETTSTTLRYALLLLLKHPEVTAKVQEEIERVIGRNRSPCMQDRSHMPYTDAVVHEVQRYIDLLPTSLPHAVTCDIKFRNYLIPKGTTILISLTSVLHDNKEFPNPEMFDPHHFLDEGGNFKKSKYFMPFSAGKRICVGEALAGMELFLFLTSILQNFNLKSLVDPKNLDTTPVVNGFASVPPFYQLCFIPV

CYP2D6 = CYP2D6 (Homo sapiens, UniProt P10635); experiment: Inhibition of CYP2D6 (unknown origin) assessed as residual activity at 10 uM; format: ADME; settings: read-out: INH
CYP2D6, sequence (P10635 whole entry): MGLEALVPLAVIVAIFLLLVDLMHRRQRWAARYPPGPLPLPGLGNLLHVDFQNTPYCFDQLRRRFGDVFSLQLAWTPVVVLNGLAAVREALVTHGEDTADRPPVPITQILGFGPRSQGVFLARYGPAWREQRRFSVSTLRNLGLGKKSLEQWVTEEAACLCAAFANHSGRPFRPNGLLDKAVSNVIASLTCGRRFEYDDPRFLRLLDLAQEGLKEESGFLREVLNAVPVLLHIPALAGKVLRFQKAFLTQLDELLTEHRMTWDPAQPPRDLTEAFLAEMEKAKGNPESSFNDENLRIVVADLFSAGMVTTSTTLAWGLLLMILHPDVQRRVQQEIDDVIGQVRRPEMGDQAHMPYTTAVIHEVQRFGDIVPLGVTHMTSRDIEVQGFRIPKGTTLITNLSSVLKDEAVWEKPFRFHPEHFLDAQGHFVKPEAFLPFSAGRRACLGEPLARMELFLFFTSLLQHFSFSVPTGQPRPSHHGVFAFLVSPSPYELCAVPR

SMILES	MIC (Staphylococcus aureus) [µg/mL]	MIC (Haemophilus influenzae) [µg/mL]	MIC (Staphylococcus) [µg/mL]	MIC (Enterococcus faecalis) [µg/mL]	MIC (Streptococcus pyogenes) [µg/mL]	MIC (Streptococcus agalactiae) [µg/mL]	MIC (Enterococcus faecium) [µg/mL]	MIC (Streptococcus pneumoniae) [µg/mL]	activity at 10 µM (CYP1A2) [%]	activity at 10 µM (CYP3A4) [%]	activity at 10 µM (MAO-B) [%]	IC50 [1] [µM]	activity at 10 µM (MAO-A) [%]	activity at 10 µM (CYP2C9) [%]	activity at 10 µM (CYP2D6) [%]
CCOC(=O)C(C)=C1CCN(c2ccc(N3C[C@H](Cn4cc(F)nn4)OC3=O)cc2F)CC1	100 (≈ 217 µM)	100 (≈ 217 µM)	100 (≈ 217 µM)	100 (≈ 217 µM)	100 (≈ 217 µM)	100 (≈ 217 µM)	100 (≈ 217 µM)	100 (≈ 217 µM)							
CCOC(=O)CC1=CCN(c2ccc(N3C[C@H](Cn4ccnn4)OC3=O)cc2F)CC1	6.25 (≈ 14.6 µM)	3.12 (≈ 7.27 µM)	6.25 (≈ 14.6 µM)	6.25 (≈ 14.6 µM)	1.56 (≈ 3.63 µM)	1.56 (≈ 3.63 µM)	6.25 (≈ 14.6 µM)	1.56 (≈ 3.63 µM)							
N#CC=C1CCN(c2ccc(N3C[C@H](Cn4ccnn4)OC3=O)cc2F)CC1	3.12 (≈ 8.16 µM)	0.78 (≈ 2.04 µM)	3.12 (≈ 8.16 µM)	3.12 (≈ 8.16 µM)	0.39 (≈ 1.02 µM)	0.78 (≈ 2.04 µM)	1.56 (≈ 4.08 µM)	0.39 (≈ 1.02 µM)	55.2	32	111	49.5	3.54	88	80.9
CCOC(=O)C=C1CCN(c2ccc(N3C[C@H](Cn4cc(F)nn4)OC3=O)cc2F)CC1	100 (≈ 223 µM)	6.25 (≈ 14 µM)	100 (≈ 223 µM)	100 (≈ 223 µM)	50 (≈ 112 µM)	100 (≈ 223 µM)	100 (≈ 223 µM)	6.25 (≈ 14 µM)							
CC(=O)NC[C@H]1CN(c2ccc(N3CCOCC3)c(F)c2)C(=O)O1 [LINEZOLID]	3.12 (≈ 9.25 µM)	0.78 (≈ 2.31 µM)	3.12 (≈ 9.25 µM)	3.12 (≈ 9.25 µM)	0.78 (≈ 2.31 µM)	1.56 (≈ 4.62 µM)	1.56 (≈ 4.62 µM)	0.78 (≈ 2.31 µM)			31.4		6.79		
CC(=O)NC[C@H]1CN(c2ccc(N3CCC(=CC#N)CC3)c(F)c2)C(=O)O1	3.12 (≈ 8.38 µM)	0.78 (≈ 2.09 µM)	3.12 (≈ 8.38 µM)	3.12 (≈ 8.38 µM)	0.78 (≈ 2.09 µM)	0.78 (≈ 2.09 µM)	3.12 (≈ 8.38 µM)	0.39 (≈ 1.05 µM)							
N#CC1(O)CCN(c2ccc(N3C[C@H](Cn4ccnn4)OC3=O)cc2F)CC1	3.12 (≈ 8.07 µM)	1.56 (≈ 4.04 µM)	3.12 (≈ 8.07 µM)	3.12 (≈ 8.07 µM)	0.78 (≈ 2.02 µM)	1.56 (≈ 4.04 µM)	3.12 (≈ 8.07 µM)	0.78 (≈ 2.02 µM)							
N#CC1(O)CCN(c2ccc(N3C[C@H](Cn4cc(F)nn4)OC3=O)cc2F)CC1	100 (≈ 247 µM)	6.25 (≈ 15.5 µM)	100 (≈ 247 µM)	100 (≈ 247 µM)	6.25 (≈ 15.5 µM)	12.5 (≈ 30.9 µM)	100 (≈ 247 µM)	6.25 (≈ 15.5 µM)							
CCOC(=O)C=C1CCN(c2ccc(N3C[C@H](Cn4ccnn4)OC3=O)cc2F)CC1	25 (≈ 58.2 µM)	12.5 (≈ 29.1 µM)	25 (≈ 58.2 µM)	25 (≈ 58.2 µM)	6.25 (≈ 14.6 µM)	12.5 (≈ 29.1 µM)	25 (≈ 58.2 µM)	6.25 (≈ 14.6 µM)							
CC(C#N)=C1CCN(c2ccc(N3C[C@H](Cn4ccnn4)OC3=O)cc2F)CC1	1.56 (≈ 3.94 µM)	0.39 (≈ 0.984 µM)	1.56 (≈ 3.94 µM)	1.56 (≈ 3.94 µM)	0.39 (≈ 0.984 µM)	0.19 (≈ 0.479 µM)	1.56 (≈ 3.94 µM)	0.19 (≈ 0.479 µM)	45.7	7.45	74.8	213	34.8	61.5	65.1
